Data as given in patent US10597388B2, “Pyridazinone herbicides” (FMC CORPORATION, priority 2014, dated 2020).

Experiments:
[1] = system: bromegrass, downy (downy bromegrass, Bromus tectorum); assay: Test D controlled growth environment herbicide test, pre- and postemergence; type: in vivo; settings: for Bromegrass, Downy plant response rating / Plant response rating (scale of 0 to 100), Bromegrass, Downy: 31 g ai/ha
Summary of the method: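 Rating is visual, 0–100 scale (100 = complete control), made against untreated plants 14–21 d after treatment in controlled growth conditions. Postemergence sprays went onto 1- to 4-leaf plants in peat medium; preemergence sprays onto silt loam after sowing; formulation included a surfactant.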

[2] = system: wild poinsettia (Euphorbia heterophylla); assay: Test E greenhouse herbicide test, pre- and postemergence; type: in vivo; settings: Postemergence
Summary of the method: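 For each species, sown seed in silt loam and young plants (2 to 18 cm) in a peat/vermiculite medium were each treated with compound dissolved in surfactant-containing, non-phytotoxic solvent. After 14 to 21 d under greenhouse conditions, effects were visually rated, 100 meaning complete control.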

[3] = Postemergence, scale 0 to 100 (0 no effect, 100 complete control)
[4] = Postemergence, 125 g ai/ha, visual rating on scale 0 (no effect) to 100 (complete control), 14 to 21 d
[5] = Postemergence, 250 g ai/ha, scale 0 to 100 (0 no effect, 100 complete control)
[6] = Preemergence, 62 g ai/ha, scale 0 to 100 (0 no effect, 100 complete control)
[7] = Preemergence, 125 g ai/ha, scale 0 to 100 (0 no effect, 100 complete control)
[8] = Preemergence, 250 g ai/ha, scale 0 to 100 (0 no effect, 100 complete control)
[9] = postemergence, 62 g ai/ha, scale 0 to 100, 0 no effect, 100 complete control
[10] = 62 g ai/ha, scale 0 to 100 (0 no effect, 100 complete control)
[11] = 125 g ai/ha, scale 0 to 100 (0 no effect, 100 complete control)
[12] = 250 g ai/ha, scale 0 to 100 (0 no effect, 100 complete control)
[13] = 31 g ai/ha, visual, scale 0 no effect to 100 complete control

CC(=O)Oc1c(C)nn(C)c(=O)c1-c1c(C)sc2ccc(C)cc12 [Compound 25]
Bromegrass, Downy plant response rating [1, 3]: 5 | Plant response rating, Bromegrass, Downy [1, 4]: 50 | Plant response rating, Bromegrass, Downy [1, 5]: 65 | Plant response rating (scale of 0 to 100), Bromegrass, Downy ([1]; Preemergence): 40 | Plant response rating, Bromegrass, Downy [1, 6]: 65 | Plant response rating, Bromegrass, Downy [1, 7]: 80 | Plant response rating, Bromegrass, Downy [1, 8]: 85 | Plant response rating, Bromegrass, Downy [1, 9]: 25 | Plant response rating, Poinsettia, Wild [2, 10]: 30 | Plant response rating, Poinsettia, Wild [2, 11]: 35 | Plant response rating, Poinsettia, Wild [2, 12]: 60 | Plant response rating, Poinsettia, Wild [2, 13]: 35

CC(=O)Oc1c(C)nn(C)c(=O)c1-c1c(C)sc2c(C)cc(C)cc12 [Compound 27]
Bromegrass, Downy plant response rating [1, 3]: 15 | Plant response rating, Bromegrass, Downy [1, 4]: 55 | Plant response rating, Bromegrass, Downy [1, 5]: 70 | Plant response rating (scale of 0 to 100), Bromegrass, Downy ([1]; Preemergence): 35 | Plant response rating, Bromegrass, Downy [1, 6]: 55 | Plant response rating, Bromegrass, Downy [1, 7]: 85 | Plant response rating, Bromegrass, Downy [1, 8]: 85 | Plant response rating, Bromegrass, Downy [1, 9]: 25

CCC(=O)Oc1c(C)nn(C)c(=O)c1-c1c(C)sc2c(C)cc(C)cc12 [Compound 28]
Bromegrass, Downy plant response rating [1, 3]: 15 | Plant response rating, Bromegrass, Downy [1, 4]: 40 | Plant response rating, Bromegrass, Downy [1, 5]: 70 | Plant response rating (scale of 0 to 100), Bromegrass, Downy ([1]; Preemergence): 45 | Plant response rating, Bromegrass, Downy [1, 6]: 55 | Plant response rating, Bromegrass, Downy [1, 7]: 70 | Plant response rating, Bromegrass, Downy [1, 8]: 85 | Plant response rating, Bromegrass, Downy [1, 9]: 25 | Plant response rating, Poinsettia, Wild [2, 11]: 50 | Plant response rating, Poinsettia, Wild [2, 12]: 40

COc1nn(C)c(=O)c(-c2c(C)ccc3ccccc23)c1OC(=O)OC(C)C [Compound 36]
Bromegrass, Downy plant response rating [1, 3]: 10 | Plant response rating, Bromegrass, Downy [1, 4]: 55 | Plant response rating, Bromegrass, Downy [1, 5]: 65 | Plant response rating (scale of 0 to 100), Bromegrass, Downy ([1]; Preemergence): 0 | Plant response rating, Bromegrass, Downy [1, 6]: 0 | Plant response rating, Bromegrass, Downy [1, 7]: 10 | Plant response rating, Bromegrass, Downy [1, 8]: 35 | Plant response rating, Bromegrass, Downy [1, 9]: 20

CCC(=O)Oc1c(C)nn(C)c(=O)c1-c1c(C)sc2ccc(C)cc12 [Compound 42]
Bromegrass, Downy plant response rating [1, 3]: 0 | Plant response rating, Bromegrass, Downy [1, 4]: 40 | Plant response rating, Bromegrass, Downy [1, 5]: 70 | Plant response rating (scale of 0 to 100), Bromegrass, Downy ([1]; Preemergence): 45 | Plant response rating, Bromegrass, Downy [1, 6]: 55 | Plant response rating, Bromegrass, Downy [1, 7]: 70 | Plant response rating, Bromegrass, Downy [1, 8]: 90 | Plant response rating, Bromegrass, Downy [1, 9]: 20

Cc1ccc(-c2c(O)c(Br)nn(C)c2=O)c2ccccc12 [Compound 52]
Bromegrass, Downy plant response rating [1, 3]: 0 | Plant response rating, Bromegrass, Downy [1, 4]: 0 | Plant response rating, Bromegrass, Downy [1, 5]: 10 | Plant response rating (scale of 0 to 100), Bromegrass, Downy ([1]; Preemergence): 0 | Plant response rating, Bromegrass, Downy [1, 6]: 0 | Plant response rating, Bromegrass, Downy [1, 7]: 15 | Plant response rating, Bromegrass, Downy [1, 8]: 20 | Plant response rating, Bromegrass, Downy [1, 9]: 0

COc1nn(C)c(=O)c(-c2c(C)ccc3ccccc23)c1O [Compound 54]
Bromegrass, Downy plant response rating [1, 3]: 10 | Plant response rating, Bromegrass, Downy [1, 4]: 55 | Plant response rating, Bromegrass, Downy [1, 5]: 75 | Plant response rating (scale of 0 to 100), Bromegrass, Downy ([1]; Preemergence): 0 | Plant response rating, Bromegrass, Downy [1, 6]: 15 | Plant response rating, Bromegrass, Downy [1, 7]: 15 | Plant response rating, Bromegrass, Downy [1, 8]: 40 | Plant response rating, Bromegrass, Downy [1, 9]: 55

Cc1ccc2ccccc2c1-c1c(O)c(C)nn(C)c1=O [Compound 59]
Bromegrass, Downy plant response rating [1, 3]: 35 | Plant response rating, Bromegrass, Downy [1, 4]: 70 | Plant response rating, Bromegrass, Downy [1, 5]: 85 | Plant response rating (scale of 0 to 100), Bromegrass, Downy ([1]; Preemergence): 75 | Plant response rating, Bromegrass, Downy [1, 6]: 85 | Plant response rating, Bromegrass, Downy [1, 7]: 90 | Plant response rating, Bromegrass, Downy [1, 8]: 95 | Plant response rating, Bromegrass, Downy [1, 9]: 70

Cc1ccc2ccc(C)c(-c3c(O)c(C)nn(C)c3=O)c2c1 [Compound 60]
Bromegrass, Downy plant response rating [1, 3]: 30 | Plant response rating, Bromegrass, Downy [1, 4]: 65 | Plant response rating, Bromegrass, Downy [1, 5]: 80 | Plant response rating (scale of 0 to 100), Bromegrass, Downy ([1]; Preemergence): 60 | Plant response rating, Bromegrass, Downy [1, 6]: 90 | Plant response rating, Bromegrass, Downy [1, 7]: 95 | Plant response rating, Bromegrass, Downy [1, 8]: 98 | Plant response rating, Bromegrass, Downy [1, 9]: 55

Cc1cc(C)c2sc(C)c(-c3c(OC(=O)OC(C)C)c(C)nn(C)c3=O)c2c1 [Compound 67]
Bromegrass, Downy plant response rating [1, 3]: 60 | Plant response rating, Bromegrass, Downy [1, 4]: 65 | Plant response rating, Bromegrass, Downy [1, 5]: 70 | Plant response rating (scale of 0 to 100), Bromegrass, Downy ([1]; Preemergence): 25 | Plant response rating, Bromegrass, Downy [1, 6]: 35 | Plant response rating, Bromegrass, Downy [1, 7]: 35 | Plant response rating, Bromegrass, Downy [1, 8]: 70 | Plant response rating, Bromegrass, Downy [1, 9]: 60

CCOC(=O)Oc1c(C)nn(C)c(=O)c1-c1c(C)ccc2ccccc12 [Compound 73]
Bromegrass, Downy plant response rating [1, 3]: 25 | Plant response rating, Bromegrass, Downy [1, 4]: 70 | Plant response rating, Bromegrass, Downy [1, 5]: 85 | Plant response rating (scale of 0 to 100), Bromegrass, Downy ([1]; Preemergence): 20 | Plant response rating, Bromegrass, Downy [1, 6]: 40 | Plant response rating, Bromegrass, Downy [1, 7]: 50 | Plant response rating, Bromegrass, Downy [1, 8]: 90 | Plant response rating, Bromegrass, Downy [1, 9]: 55

CCOC(=O)Oc1c(C)nn(C)c(=O)c1-c1c(C)sc2c(C)cc(C)cc12 [Compound 83]
Bromegrass, Downy plant response rating [1, 3]: 25 | Plant response rating, Bromegrass, Downy [1, 4]: 50 | Plant response rating, Bromegrass, Downy [1, 5]: 70 | Plant response rating (scale of 0 to 100), Bromegrass, Downy ([1]; Preemergence): 20 | Plant response rating, Bromegrass, Downy [1, 6]: 30 | Plant response rating, Bromegrass, Downy [1, 7]: 60 | Plant response rating, Bromegrass, Downy [1, 8]: 40 | Plant response rating, Bromegrass, Downy [1, 9]: 35

Cc1cc(C)c2sc(C)c(-c3c(OC(=O)OCCCl)c(C)nn(C)c3=O)c2c1 [Compound 85]
Bromegrass, Downy plant response rating [1, 3]: 30 | Plant response rating, Bromegrass, Downy [1, 4]: 35 | Plant response rating, Bromegrass, Downy [1, 5]: 60 | Plant response rating (scale of 0 to 100), Bromegrass, Downy ([1]; Preemergence): 15 | Plant response rating, Bromegrass, Downy [1, 6]: 35 | Plant response rating, Bromegrass, Downy [1, 7]: 55 | Plant response rating, Bromegrass, Downy [1, 8]: 80 | Plant response rating, Bromegrass, Downy [1, 9]: 30

COc1nn(C)c(=O)c(-c2c(C)sc3ccc(Cl)cc23)c1O [Compound 100]
Plant response rating, Poinsettia, Wild [2, 10]: 0 | Plant response rating, Poinsettia, Wild [2, 11]: 10 | Plant response rating, Poinsettia, Wild [2, 12]: 35 | Plant response rating, Poinsettia, Wild [2, 13]: 0

Cc1nn(C)c(=O)c(-c2c(C)sc3ccc(Cl)cc23)c1O [Compound 104]
Bromegrass, Downy plant response rating [1, 3]: 20 | Plant response rating, Bromegrass, Downy [1, 4]: 55 | Plant response rating, Bromegrass, Downy [1, 5]: 65 | Plant response rating (scale of 0 to 100), Bromegrass, Downy ([1]; Preemergence): 0 | Plant response rating, Bromegrass, Downy [1, 6]: 65 | Plant response rating, Bromegrass, Downy [1, 7]: 65 | Plant response rating, Bromegrass, Downy [1, 8]: 85 | Plant response rating, Bromegrass, Downy [1, 9]: 30

CSCC(=O)Oc1c(C)nn(C)c(=O)c1-c1cccc2ccccc12 [Compound 171]
Plant response rating, Poinsettia, Wild [2, 10]: 30 | Plant response rating, Poinsettia, Wild [2, 11]: 40 | Plant response rating, Poinsettia, Wild [2, 12]: 80 | Plant response rating, Poinsettia, Wild [2, 13]: 25
